# Measured values from US20030104507A1, “Method for detection of ATP” (priority 2001, published 2003).
# Experiments:
# LucPpy = biological target: T1, LucPpy (Photinus pyralis, UniProt P08659); test: Stability of reagent composition with LucPpy and detergent (RT, pH 7.0); assay type: biochemical; details: for Average Relative Light Units / Percent of Luminescence Remaining: LucPpy
# T1 construct: purchased Promega E170A
# Source text: (§1) The detergents used for inhibition of endogenous ATPase activity in a sample also affect activity of luciferase. […] It is ultimately the extended stability of a reagent composition, comprising an ATPase inhibitor and a luciferase enzyme, which provides a composition useful for measuring ATP, in a sample or samples, over an extended period of time.
# (§2) In this experiment, the stability of a reagent composition comprising wild type LucPpy was compared to the stability of a reagent composition comprising LucPpe2m146 at about 23° C. (room temperature). The various reagent compositions had varying detergent concentrations.
# (§3) Two solutions were created as listed below. One contained the luciferase, luciferin, MgSO4, and buffer (reagent composition). The other solution contained media plus ATP (media solution).
# (§4) 50 μg/ml enzyme (LucPpy is Promega catalog #E170A)
# (§5) Detergent (at various concentrations, see table below)
# (§6) For each reagent composition, all ingredients except the luciferase enzyme were assembled; the enzyme was then added immediately before the first luminescence reading was taken. Immediately after addition of enzyme to each reagent composition and for various timepoints thereafter, 100 μl aliquots of the reagent composition were added to wells of a 96-well microtitre luminometer plate in triplicate. To these were added 100 μl Media Solution containing the ATP. Luminescence was then immediately read on a Dynex MLX microtitreplate luminometer, 0.5 second reads per well. The average relative light unit values as well as the reaction half lives are listed below in Table I and the percent of original luminescence remaining at each timepoint is listed in Table J below. The timepoint at the top of the column indicates the time at which the first rlu measurement for the samples in that column was read. […] Times listed in Table I are the same for Table J. The values for sulfobetaine and for CTAB were generated on different days, they are presented with the control values generated in the same experiment.
# LucPpe2m146 = test: Stability of reagent composition with LucPpe2m146 and detergent (RT, pH 7.0); assay type: biochemical, Photuris pennsylvanica
# Source text: as §1, §2, §3, §4, §5, §6
smiles,measurement,setting,value
"CCCCCCCCCCCC[N+](C)(C)CCCS(=O)(=O)[O-] [Sulfobetaine 3-10, N-Dodecyl-N,N-dimethyl-3-ammonio-1-propanesulfonate]",Half-life of Luminescence Activity,"LucPpy; Common firefly luciferase (P. pyralis), conc. 0.500",no activity
same,Average Relative Light Units,"LucPpy; 0.1%, 0.75 min (head r12)",3291.41 rlu
same,Percent of Luminescence Remaining,"LucPpy; 0.1%, 0.75 min (times of Table I r12)",100.00%
same,Average Relative Light Units,"LucPpy; 0.1%, 7.5 min (head r12)",3178.07 rlu
same,Percent of Luminescence Remaining,"LucPpy; 0.1%, 7.5 min (times of Table I r12)",95.8%
same,Average Relative Light Units,"LucPpy; 0.1%, 20.5 min (head r12)",3262.17 rlu
same,Percent of Luminescence Remaining,"LucPpy; 0.1%, 20.5 min (times of Table I r12)",99.1%
same,Average Relative Light Units,"LucPpy; 0.1%, 59 min (head r12)",3074.49 rlu
same,Percent of Luminescence Remaining,"LucPpy; 0.1%, 59 min (times of Table I r12)",93.4%
same,Average Relative Light Units,"LucPpy; 0.1%, 90 min (head r12)",3066.29 rlu
same,Percent of Luminescence Remaining,"LucPpy; 0.1%, 90 min (times of Table I r12)",93. %
same,Average Relative Light Units,"LucPpy; 0.5%, 0.75 min (head r12)",737.788 rlu
same,Percent of Luminescence Remaining,"LucPpy; 0.5%, 0.75 min (times of Table I r12)",100.00%
same,Average Relative Light Units,"LucPpy; 0.5%, 7.5 min (head r12)",0.084 rlu
same,Average Relative Light Units,"LucPpy; 0.5%, 20.5 min (head r12)",0.037 rlu
same,Average Relative Light Units,"LucPpy; 1.0%, 0.75 min (head r12)",0.024 rlu
same,Average Relative Light Units,"LucPpy; 1.0%, 7.5 min (head r12)",0.000 rlu
same,Average Relative Light Units,"LucPpe2m146; LucPpe2m146, 0.1%, 0.75 min (head r48)",16648.3 rlu
same,Percent of Luminescence Remaining,"LucPpe2m146; LucPpe2m146, 0.1%, 0.75 min (times of Table I r48)",100.00%
same,Average Relative Light Units,"LucPpe2m146; LucPpe2m146, 0.1%, 30 min (head r48)",17003.0 rlu
same,Percent of Luminescence Remaining,"LucPpe2m146; LucPpe2m146, 0.1%, 30 min (times of Table I r48)",102.1%
same,Average Relative Light Units,"LucPpe2m146; LucPpe2m146, 0.1%, 66 min (head r48)",17849.8 rlu
same,Percent of Luminescence Remaining,"LucPpe2m146; LucPpe2m146, 0.1%, 66 min (times of Table I r48)",107.2%
same,Average Relative Light Units,"LucPpe2m146; LucPpe2m146, 0.1%, 123 min (head r48)",16610.13 rlu
same,Percent of Luminescence Remaining,"LucPpe2m146; LucPpe2m146, 0.1%, 123 min (times of Table I r48)",99.8%
same,Average Relative Light Units,"LucPpe2m146; LucPpe2m146, 0.1%, 180 min (head r48)",17115.63 rlu
same,Percent of Luminescence Remaining,"LucPpe2m146; LucPpe2m146, 0.1%, 180 min (times of Table I r48)",102.8%
same,Average Relative Light Units,"LucPpe2m146; LucPpe2m146, 0.1%, 238 min (head r48)",18131.37 rlu
same,Percent of Luminescence Remaining,"LucPpe2m146; LucPpe2m146, 0.1%, 238 min (times of Table I r48)",108.9%
same,Average Relative Light Units,"LucPpe2m146; LucPpe2m146, 0.5%, 0.75 min (head r48)",13447.0 rlu
same,Percent of Luminescence Remaining,"LucPpe2m146; LucPpe2m146, 0.5%, 0.75 min (times of Table I r48)",100.00%
same,Average Relative Light Units,"LucPpe2m146; LucPpe2m146, 0.5%, 30 min (head r48)",13597.97 rlu
same,Percent of Luminescence Remaining,"LucPpe2m146; LucPpe2m146, 0.5%, 30 min (times of Table I r48)",101.1%
same,Average Relative Light Units,"LucPpe2m146; LucPpe2m146, 0.5%, 66 min (head r48)",14186.93 rlu
same,Percent of Luminescence Remaining,"LucPpe2m146; LucPpe2m146, 0.5%, 66 min (times of Table I r48)",105.5%
same,Average Relative Light Units,"LucPpe2m146; LucPpe2m146, 0.5%, 123 min (head r48)",12982.20 rlu
same,Percent of Luminescence Remaining,"LucPpe2m146; LucPpe2m146, 0.5%, 123 min (times of Table I r48)",96.5%
same,Average Relative Light Units,"LucPpe2m146; LucPpe2m146, 0.5%, 180 min (head r48)",14348.90 rlu
same,Percent of Luminescence Remaining,"LucPpe2m146; LucPpe2m146, 0.5%, 180 min (times of Table I r48)",106.7%
same,Average Relative Light Units,"LucPpe2m146; LucPpe2m146, 0.5%, 238 min (head r48)",13958.2 rlu
same,Percent of Luminescence Remaining,"LucPpe2m146; LucPpe2m146, 0.5%, 238 min (times of Table I r48)",103.8%
same,Average Relative Light Units,"LucPpe2m146; LucPpe2m146, 1.0%, 0.75 min (head r48)",16897.5 rlu
same,Percent of Luminescence Remaining,"LucPpe2m146; LucPpe2m146, 1.0%, 0.75 min (times of Table I r48)",100.00%
same,Average Relative Light Units,"LucPpe2m146; LucPpe2m146, 1.0%, 30 min (head r48)",16754.97 rlu
same,Percent of Luminescence Remaining,"LucPpe2m146; LucPpe2m146, 1.0%, 30 min (times of Table I r48)",102.0%
same,Average Relative Light Units,"LucPpe2m146; LucPpe2m146, 1.0%, 66 min (head r48)",7036.0 rlu
same,Percent of Luminescence Remaining,"LucPpe2m146; LucPpe2m146, 1.0%, 66 min (times of Table I r48)",106.0%
same,Average Relative Light Units,"LucPpe2m146; LucPpe2m146, 1.0%, 123 min (head r48)",6653.67 rlu
same,Percent of Luminescence Remaining,"LucPpe2m146; LucPpe2m146, 1.0%, 123 min (times of Table I r48)",100.3%
same,Average Relative Light Units,"LucPpe2m146; LucPpe2m146, 1.0%, 180 min (head r48)",7358.44 rlu
same,Percent of Luminescence Remaining,"LucPpe2m146; LucPpe2m146, 1.0%, 180 min (times of Table I r48)",110.9%
same,Average Relative Light Units,"LucPpe2m146; LucPpe2m146, 1.0%, 238 min (head r48)",6948.05 rlu
same,Percent of Luminescence Remaining,"LucPpe2m146; LucPpe2m146, 1.0%, 238 min (times of Table I r48)",104.7%
